Experimental data as given in patent US11174268B2, “Benzenesulfonamide compouds and their use as therapeutic agents” (Xenon Pharmaceuticals Inc., priority 2016, dated 2021).
Structures can show the parent of a compound that is named as a salt. Where two headings read alike, the source gives them in different places.

Assays:
NaV1.6 [1] = biological target: T1, NaV1.6 (Homo sapiens (Human), UniProt Q9UQD0); experiment: Electrophysiological Assay (EP), patch voltage clamp, NaV1.6; assay type: cell-based; details: HEK-293 cells, whole-cell patch clamp;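 note: sodium current recorded at ambient temperature, channels held inactivated then briefly repolarized to −150 mV for 20 ms before a test pulse, control currents in 0.5% DMSO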
NaV1.1 [2] = biological target: T2, NaV1.1 (Homo sapiens (Human), UniProt P35498); experiment: Electrophysiological Assay (EP), patch voltage clamp, NaV1.1; assay type: cell-based; details: HEK-293 cells, whole-cell patch clamp;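 note: sodium current block measured at ambient temperature, holding at fully inactivating potential, 20 ms repolarization to −150 mV before test pulse, versus 0.5% DMSO control currents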
NaV1.5 = NaV1.5 (Homo sapiens (Human), UniProt Q14524); experiment: Sodium Influx Assay (Flux), NaV1.5
NaV1.1 [3] = biological target: T2, NaV1.1; experiment: Sodium Influx Assay (Flux), NaV1.1; assay type: cell-based; details: Trex HEK293 cells, ANG2 dye, inactivated state;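 note: channels co-expressed with human β1 subunit and held open by modulators, cells exposed to compounds for one hour at room temperature, IC50 from percent inhibition of influx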
NaV1.6 [4] = biological target: T1, NaV1.6; experiment: Sodium Influx Assay (Flux), NaV1.6; assay type: cell-based; details: Trex HEK293 cells, ANG2 dye, inactivated state;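 note: Tetracycline-induced cells, compounds applied for one hour at room temperature with modulators holding channels open, IC50 from percent inhibition of sodium influx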
[5] = read-out: Flux NaV1.5 IC50, Trex HEK293 cells, ANG2 dye, inactivated state

T1 sequence (Q9UQD0 whole entry): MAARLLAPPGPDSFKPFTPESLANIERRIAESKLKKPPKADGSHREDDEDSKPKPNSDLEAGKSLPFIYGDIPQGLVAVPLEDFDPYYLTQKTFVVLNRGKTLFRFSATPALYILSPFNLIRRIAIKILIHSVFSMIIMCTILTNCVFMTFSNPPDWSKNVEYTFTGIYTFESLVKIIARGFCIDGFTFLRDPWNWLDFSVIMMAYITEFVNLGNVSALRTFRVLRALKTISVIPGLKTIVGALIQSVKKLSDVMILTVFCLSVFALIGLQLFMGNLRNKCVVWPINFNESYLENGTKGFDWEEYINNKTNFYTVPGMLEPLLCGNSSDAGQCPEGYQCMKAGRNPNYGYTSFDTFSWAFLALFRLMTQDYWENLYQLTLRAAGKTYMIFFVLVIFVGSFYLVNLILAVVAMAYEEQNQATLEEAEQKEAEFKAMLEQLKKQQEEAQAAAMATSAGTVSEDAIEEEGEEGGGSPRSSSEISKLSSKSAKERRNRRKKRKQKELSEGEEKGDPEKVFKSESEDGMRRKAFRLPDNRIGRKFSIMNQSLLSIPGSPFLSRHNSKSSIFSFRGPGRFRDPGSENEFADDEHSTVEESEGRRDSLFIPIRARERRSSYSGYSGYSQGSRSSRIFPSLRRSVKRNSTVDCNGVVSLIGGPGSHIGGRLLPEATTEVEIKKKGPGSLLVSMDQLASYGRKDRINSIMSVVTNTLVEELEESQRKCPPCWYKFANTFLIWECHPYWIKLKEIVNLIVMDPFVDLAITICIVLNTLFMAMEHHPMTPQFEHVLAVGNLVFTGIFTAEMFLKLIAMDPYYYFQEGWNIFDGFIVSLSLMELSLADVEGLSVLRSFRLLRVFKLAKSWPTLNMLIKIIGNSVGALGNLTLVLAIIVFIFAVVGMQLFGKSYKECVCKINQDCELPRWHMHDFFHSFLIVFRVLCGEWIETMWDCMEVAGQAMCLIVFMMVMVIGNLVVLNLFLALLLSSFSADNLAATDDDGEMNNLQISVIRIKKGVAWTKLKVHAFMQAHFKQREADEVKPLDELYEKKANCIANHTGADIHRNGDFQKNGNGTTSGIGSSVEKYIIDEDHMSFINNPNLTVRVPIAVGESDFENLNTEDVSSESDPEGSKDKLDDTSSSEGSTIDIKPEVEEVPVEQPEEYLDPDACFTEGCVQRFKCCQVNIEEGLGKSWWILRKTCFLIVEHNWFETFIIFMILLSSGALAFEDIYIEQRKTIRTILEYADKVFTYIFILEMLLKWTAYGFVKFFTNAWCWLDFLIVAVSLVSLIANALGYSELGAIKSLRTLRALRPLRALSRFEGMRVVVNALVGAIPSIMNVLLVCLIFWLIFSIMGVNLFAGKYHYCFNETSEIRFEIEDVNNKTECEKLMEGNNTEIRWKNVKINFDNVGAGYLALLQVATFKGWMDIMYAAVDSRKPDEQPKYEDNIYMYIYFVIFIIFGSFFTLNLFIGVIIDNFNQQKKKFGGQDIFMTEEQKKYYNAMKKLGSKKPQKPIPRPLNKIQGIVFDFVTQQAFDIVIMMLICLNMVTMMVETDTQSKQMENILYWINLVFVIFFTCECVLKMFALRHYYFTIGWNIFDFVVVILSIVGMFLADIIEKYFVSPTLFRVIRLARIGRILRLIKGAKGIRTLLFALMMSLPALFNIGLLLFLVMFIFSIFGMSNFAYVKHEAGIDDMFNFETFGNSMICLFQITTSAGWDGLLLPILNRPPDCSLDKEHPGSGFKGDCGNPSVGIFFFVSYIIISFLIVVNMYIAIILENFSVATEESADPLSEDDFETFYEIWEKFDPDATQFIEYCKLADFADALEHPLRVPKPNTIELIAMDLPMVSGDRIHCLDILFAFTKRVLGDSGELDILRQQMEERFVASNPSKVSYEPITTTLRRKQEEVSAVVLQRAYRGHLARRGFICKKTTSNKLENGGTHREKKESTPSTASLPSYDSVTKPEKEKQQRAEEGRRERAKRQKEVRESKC
Chain of NaV1.5 (Q14524 other isoform, or with tags, fused parts or gaps): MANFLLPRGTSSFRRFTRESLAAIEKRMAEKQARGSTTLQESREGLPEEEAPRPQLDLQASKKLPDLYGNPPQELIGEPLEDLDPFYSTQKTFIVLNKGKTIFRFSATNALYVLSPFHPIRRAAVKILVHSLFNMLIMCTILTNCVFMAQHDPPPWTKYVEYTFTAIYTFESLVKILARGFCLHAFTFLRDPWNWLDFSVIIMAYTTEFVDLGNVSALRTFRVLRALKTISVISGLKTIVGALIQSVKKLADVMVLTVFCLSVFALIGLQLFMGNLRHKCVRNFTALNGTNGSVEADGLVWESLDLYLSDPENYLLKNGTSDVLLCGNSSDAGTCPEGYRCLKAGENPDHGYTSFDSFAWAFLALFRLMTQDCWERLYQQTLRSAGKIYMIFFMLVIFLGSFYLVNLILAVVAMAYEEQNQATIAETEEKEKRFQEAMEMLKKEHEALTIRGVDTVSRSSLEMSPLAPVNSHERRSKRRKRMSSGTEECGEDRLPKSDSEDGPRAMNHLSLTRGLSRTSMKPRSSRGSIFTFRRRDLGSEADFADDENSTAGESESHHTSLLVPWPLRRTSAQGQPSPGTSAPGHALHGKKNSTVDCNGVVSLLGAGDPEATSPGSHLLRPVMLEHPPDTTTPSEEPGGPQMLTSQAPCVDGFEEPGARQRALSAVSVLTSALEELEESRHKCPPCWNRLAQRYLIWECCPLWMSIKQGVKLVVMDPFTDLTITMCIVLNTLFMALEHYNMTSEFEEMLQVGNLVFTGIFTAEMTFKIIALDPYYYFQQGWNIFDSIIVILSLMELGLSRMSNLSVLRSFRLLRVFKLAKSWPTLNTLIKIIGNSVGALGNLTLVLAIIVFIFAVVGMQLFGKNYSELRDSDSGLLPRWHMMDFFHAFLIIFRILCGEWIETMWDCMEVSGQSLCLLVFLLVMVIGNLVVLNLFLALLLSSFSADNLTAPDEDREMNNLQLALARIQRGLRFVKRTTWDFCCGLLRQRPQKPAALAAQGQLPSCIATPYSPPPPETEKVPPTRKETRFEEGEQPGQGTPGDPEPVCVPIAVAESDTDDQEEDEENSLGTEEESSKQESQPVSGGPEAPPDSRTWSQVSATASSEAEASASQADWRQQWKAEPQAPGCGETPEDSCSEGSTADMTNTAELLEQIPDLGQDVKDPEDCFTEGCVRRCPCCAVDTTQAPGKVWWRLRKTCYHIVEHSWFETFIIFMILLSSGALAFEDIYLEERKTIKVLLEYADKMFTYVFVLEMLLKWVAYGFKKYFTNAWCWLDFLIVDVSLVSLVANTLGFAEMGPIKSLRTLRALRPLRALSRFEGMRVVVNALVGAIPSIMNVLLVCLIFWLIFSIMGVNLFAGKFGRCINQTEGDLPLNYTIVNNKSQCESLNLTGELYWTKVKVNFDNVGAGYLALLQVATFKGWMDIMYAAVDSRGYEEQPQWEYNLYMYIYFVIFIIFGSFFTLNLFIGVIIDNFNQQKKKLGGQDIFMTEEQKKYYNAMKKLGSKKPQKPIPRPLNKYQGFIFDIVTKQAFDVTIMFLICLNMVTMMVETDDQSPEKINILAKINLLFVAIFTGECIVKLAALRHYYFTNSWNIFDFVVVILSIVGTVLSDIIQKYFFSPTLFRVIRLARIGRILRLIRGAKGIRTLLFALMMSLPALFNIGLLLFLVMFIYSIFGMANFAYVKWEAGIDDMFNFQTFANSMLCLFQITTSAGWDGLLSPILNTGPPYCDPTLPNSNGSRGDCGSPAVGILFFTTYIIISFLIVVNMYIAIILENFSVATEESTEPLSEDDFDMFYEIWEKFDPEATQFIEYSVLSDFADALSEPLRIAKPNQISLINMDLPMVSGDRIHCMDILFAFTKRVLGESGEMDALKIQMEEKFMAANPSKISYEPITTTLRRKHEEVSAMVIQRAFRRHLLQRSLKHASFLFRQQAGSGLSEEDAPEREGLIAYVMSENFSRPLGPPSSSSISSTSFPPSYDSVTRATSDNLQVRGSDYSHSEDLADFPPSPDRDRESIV

SMILES | IC50 (NaV1.6 [1]) [µM] | IC50 (NaV1.1 [2]) [µM] | IC50 (NaV1.1 [3]) [µM] | IC50 (NaV1.6 [4]) [µM] | IC50 (NaV1.5; [5]) [µM] | IC50 (NaV1.5) [µM]
O=S(=O)(Nc1cscn1)c1c(F)cc(NCc2c(F)cccc2CN2CC3(CCO3)C2)cc1F [Example 156, 4-((2-((1-oxa-6-azaspiro[3.3]heptan-6-yl)methyl)-6-fluorobenzyl)amino)-2,6-difluoro-N-(thiazol-4-yl)benzenesulfonamide formate] | 0.022 | 10 | 24.8 | 0.146 | 30 | 
C[C@H](Nc1ccc(S(=O)(=O)Nc2ccncn2)c(F)c1Cl)c1ccccc1Cl [Example 191, (S)-3-chloro-4-((1-(2-chlorophenyl)ethyl)amino)-2-fluoro-N-(pyrimidin-4-yl)benzenesulfonamide] | 0.112 | 10 | 18.2 | 0.244 | 20 | 
C[C@H](Nc1cc(F)c(S(=O)(=O)Nc2cscn2)c(F)c1)c1cc(Cl)ccc1F [Example 207, (S)-4-((1-(5-chloro-2-fluorophenyl)ethyl)amino)-2,6-difluoro-N-(thiazol-4-yl)benzenesulfonamide 2,2,2-trifluoroacetate] | 0.121 | 8.13 | 4.38 | 0.413 | 9.57 | 
O=S(=O)(Nc1cscn1)c1cc(Cl)c(NC2(c3cc(F)ccc3F)CC2)cc1F [Example 225, 5-chloro-4-((1-(2,5-difluorophenyl)cyclopropyl)amino)-2-fluoro-N-(thiazol-4-yl)benzenesulfonamide] | 0.742 | 10 | 9.82 | 2 | 4.47 | 
C[C@H](Nc1cc(F)c(S(=O)(=O)Nc2cnccn2)cc1Cl)c1cc(Cl)ccc1F [Example 243] | 6.25 | 10 | ≥ 30 | 8.68 |  | ≥ 30
O=S(=O)(Nc1cscn1)c1cc(Cl)c(NCc2c(F)cccc2CN2CC(F)C2)cc1F [Example 247, 5-chloro-2-fluoro-4-((2-fluoro-6-((3-fluoroazetidin-1-yl)methyl)benzyl)amino)-N-(thiazol-4-yl)benzenesulfonamide] | 0.409 | 10 | 25.3 | 6.16 | 30 | 
C[C@H](Nc1ccc(S(=O)(=O)Nc2ccncn2)cc1C(F)(F)F)c1cc(F)ccc1F [Example 273, (S)-4-((1-(2,5-difluorophenyl)ethyl)amino)-N-(pyrimidin-4-yl)-3-(trifluoromethyl)benzenesulfonamide] | 0.122 | 10 | 30 | 0.896 | 30 | 
C[C@H](Nc1cc(F)c(S(=O)(=O)Nc2ncco2)cc1Cl)c1cc(F)ccc1F [Example 287, (S)-5-Chloro-4-((1-(2,5-difluorophenyl)ethyl)amino)-2-fluoro-N-(oxazol-2-yl)benzenesulfonamide] | 0.47 | 10 | 25.2 | 1.53 | 30 | 
O=S(=O)(Nc1cscn1)c1cc(Cl)c(NCc2c(F)ccc(F)c2CO)cc1F [Example 293, 5-Chloro-4-((3,6-difluoro-2-(hydroxymethyl)benzyl)amino)-2-fluoro-N-(thiazol-4-yl)benzenesulfonamide] | 0.202 | 10 | 12.7 | 0.426 | 30 | 
O=S(=O)(Nc1cscn1)c1c(F)cc(NCc2c(Cl)cccc2CN2CC3(COC3)C2)cc1F [Example 295, 4-((2-((2-oxa-6-azaspiro[3.3]heptan-6-yl)methyl)-6-chlorobenzyl)amino)-2,6-difluoro-N-(thiazol-4-yl)benzenesulfonamide formate] | 0.042 | 10 | 12.1 | 0.383 | 30 | 
CC[C@H](Nc1cc(F)c(S(=O)(=O)Nc2cccc(F)n2)cc1Cl)c1ccccc1F [Example 316, (S)-5-chloro-2-fluoro-4-((1-(2-fluorophenyl)propyl)amino)-N-(6-fluoropyridin-2-yl)benzenesulfonamide] | 0.264 | 5.65 | 2.5 | 0.961 | 5.86 | 

The next lines start with results.

IC50 (NaV1.6 [1]) [µM] | IC50 (NaV1.1 [2]) [µM] | IC50 (NaV1.1 [3]) [µM] | IC50 (NaV1.6 [4]) [µM] | SMILES | IC50 (NaV1.5; [5]) [µM] | IC50 (NaV1.5) [µM]
0.043 | 10 | 5.76 | 0.151 | O=S(=O)(Nc1cccc(F)n1)c1cc(Cl)c(NCc2c(F)cccc2CN2CCC2)cc1F [Example 138, 4-((2-(azetidin-1-ylmethyl)-6-fluorobenzyl)amino)-5-chloro-2-fluoro-N-(6-fluoropyridin-2-yl)benzenesulfonamide] | 9.85 | 
0.031 | 0.277 | 3.33 | 0.479 | CCC(Nc1cc(F)c(S(=O)(=O)Nc2nccs2)cc1Cl)c1ccccc1 (centres unmarked) [Example 141, 5-chloro-2-fluoro-4-(1-phenylpropylamino)-N-(thiazol-2-yl)benzenesulfonamide] |  | 21
0.027 | 0.159 | 2.49 | 0.528 | CC(C)CC(Nc1cc(F)c(S(=O)(=O)Nc2nccs2)cc1Cl)c1ccccc1 (centres unmarked) [Example 143, 5-chloro-2-fluoro-4-(3-methyl-1-phenylbutylamino)-N-(thiazol-2-yl)benzenesulfonamide] |  | 7.01
0.015 | 10 | 16.2 | 0.072 | O=S(=O)(Nc1cscn1)c1ccc(NCc2c(F)cccc2CN2CCC2)c(Cl)c1F [Example 192, 4-((2-(azetidin-1-ylmethyl)-6-fluorobenzyl)amino)-3-chloro-2-fluoro-N-(thiazol-4-yl)benzenesulfonamide formate] | 8.51 | 
0.043 | 10 | 8.54 | 0.227 | O=S(=O)(Nc1cscn1)c1c(F)cc(NCc2c(F)cccc2CN2CC(F)C2)cc1F [Example 194, 2,6-difluoro-4-((2-fluoro-6-((3-fluoroazetidin-1-yl)methyl)benzyl)amino)-N-(thiazol-4-yl)benzenesulfonamide formate] | 30 | 
0.076 | 10 | 7.05 | 0.448 | C[C@H](Nc1cc(F)c(S(=O)(=O)Nc2ccncn2)c(F)c1)c1cc(Cl)ccc1F [Example 206, (S)-4-((1-(5-chloro-2-fluorophenyl)ethyl)amino)-2,6-difluoro-N-(pyrimidin-4-yl)benzenesulfonamide 2,2,2-trifluoroacetate] | 30 | 
0.076 | 10 | 27.3 | 0.317 | COc1cccc(CN2CCC2)c1CNc1cc(F)c(S(=O)(=O)Nc2cscn2)c(F)c1 [Example 209, 4-((2-(azetidin-1-ylmethyl)-6-methoxybenzyl)amino)-2,6-difluoro-N-(thiazol-4-yl)benzenesulfonamide 2,2,2-trifluoroacetate] | 30 | 
0.018 | 0.05 | 0.794 | 0.194 | CC[C@H](Nc1cc(F)c(S(=O)(=O)Nc2ncc(F)s2)cc1Cl)c1ccccc1 [Example 265, (S)-5-chloro-2-fluoro-N-(5-fluorothiazol-2-yl)-4-((1-phenylpropyl)amino)benzenesulfonamide] | 12.5 | 
0.015 | 0.133 | 0.767 | 0.117 | C[C@H](Nc1cc(F)c(S(=O)(=O)Nc2ncc(F)s2)cc1Cl)c1ccccc1F [Example 266, (S)-5-chloro-2-fluoro-4-((1-(2-fluorophenyl)ethyl)amino)-N-(5-fluorothiazol-2-yl)benzenesulfonamide] | 5.44 | 
0.01 | 0.332 | 0.388 | 0.035 | C[C@H](Nc1cc(F)c(S(=O)(=O)Nc2nccs2)cc1Cl)c1cc(F)ccc1F [Example 268, (S)-5-chloro-4-((1-(2,5-difluorophenyl)ethyl)amino)-2-fluoro-N-(thiazol-2-yl)benzenesulfonamide] | 3.68 | 
0.018 | 10 | 12.5 | 0.213 | O=S(=O)(Nc1ccncn1)c1cc(Cl)c(N[C@H](c2cc(Cl)ccc2F)C(F)(F)F)cc1F [Example 270, (R)-5-chloro-4-((1-(5-chloro-2-fluorophenyl)-2,2,2-trifluoroethyl)amino)-2-fluoro-N-(pyrimidin-4-yl)benzenesulfonamide] | 11 | 
0.025 | 4.85 | 5.33 | 0.174 | Cc1cc(S(=O)(=O)Nc2ccncn2)c(F)cc1N[C@@H](C)c1cc(Cl)ccc1F [Example 275, (S)-4-((1-(5-chloro-2-fluorophenyl)ethyl)amino)-2-fluoro-5-methyl-N-(pyrimidin-4-yl)benzenesulfonamide] | 30 | 
0.036 | 10 | 11.8 | 0.18 | O=S(=O)(Nc1cscn1)c1cc(Cl)c(NCc2c(F)ccc(F)c2CN2CCC2)cc1F [Example 288, 4-((2-(Azetidin-1-ylmethyl)-3,6-difluorobenzyl)amino)-5-chloro-2-fluoro-N-(thiazol-4-yl)benzenesulfonamide hydrochloride] | 17.9 | 
0.011 | 10 | 6.02 | 0.101 | O=S(=O)(Nc1cscn1)c1c(F)cc(NCc2c(Cl)cccc2CN2CCC2)cc1F [Example 290, 4-((2-(azetidin-1-ylmethyl)-6-chlorobenzyl)amino)-2,6-difluoro-N-(thiazol-4-yl)benzenesulfonamide 2,2,2-trifluoroacetate] | 25.1 | 
